The record followed here is ChEMBL document CHEMBL1130508, “Synthesis of 7-membered cyclic hydroxyguanidines: Novel HIV-1 protease inhibitors” (Bioorg Med Chem Lett, 1997).

The target of this experiment is Human immunodeficiency virus type 1 protease (Human immunodeficiency virus 1, UniProt Q72874). Kind of experiment: The compound was evaluated for its inhibition constant against HIV-1 protease (HIV PR).

Each structure is given as a SMILES string.

`O[C@@H]1[C@@H](O)[C@@H](Cc2ccccc2)N(Cc2ccccc2)C(=NOCc2ccccc2)N(Cc2ccccc2)[C@@H]1Cc1ccccc1`: the Ki was 3000 nM.

Regarding `ON=C1N(Cc2ccccc2)[C@H](Cc2ccccc2)[C@H](O)[C@@H](O)[C@@H](Cc2ccccc2)N1Cc1ccccc1`, the affinity corresponds to a Ki of 42 nM. Against the preceding compound, the Ki is about 71-fold lower.
